According to article PMC4043709 (Drug Design, Development and Therapy, 2014):

Molecular target: T1, ABCG2 (Homo sapiens, UniProt Q9UNQ0)
T1 sequence (Q9UNQ0 1-655): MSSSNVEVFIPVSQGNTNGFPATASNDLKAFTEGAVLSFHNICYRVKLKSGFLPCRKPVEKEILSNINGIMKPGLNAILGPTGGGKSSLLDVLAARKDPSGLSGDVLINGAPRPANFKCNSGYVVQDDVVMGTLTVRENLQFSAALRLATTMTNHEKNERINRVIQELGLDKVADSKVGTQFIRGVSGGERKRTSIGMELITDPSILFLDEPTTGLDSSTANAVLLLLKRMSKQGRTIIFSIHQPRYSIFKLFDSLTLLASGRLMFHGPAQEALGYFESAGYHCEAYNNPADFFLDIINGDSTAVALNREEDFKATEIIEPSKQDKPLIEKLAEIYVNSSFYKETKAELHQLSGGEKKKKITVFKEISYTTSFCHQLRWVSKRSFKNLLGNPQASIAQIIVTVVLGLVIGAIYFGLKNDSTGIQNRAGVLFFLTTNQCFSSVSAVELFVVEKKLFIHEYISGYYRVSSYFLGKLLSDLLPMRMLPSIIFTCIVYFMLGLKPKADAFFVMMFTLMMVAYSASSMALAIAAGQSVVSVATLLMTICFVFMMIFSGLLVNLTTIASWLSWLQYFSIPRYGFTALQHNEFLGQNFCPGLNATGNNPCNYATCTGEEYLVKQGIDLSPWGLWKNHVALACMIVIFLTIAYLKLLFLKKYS
Assay: ABCG2-mediated mitoxantrone efflux
Assay type: cell-based
Settings: 6 versus 3; 10 versus 5

Structure (SMILES) | fold decrease of inhibition caused by hydroxyl group at 4′ position
COc1cc(C(=O)/C=C/c2ccc3nccnc3c2)ccc1O [Compound 6, (2E)-1-(3′-methoxy,4′-hydroxy-phenyl)-3-(quinoxalin-6-yl)-2-propen-1-one] | 8 fold
COc1cc(C(=O)/C=C/c2ccc3nccnc3c2)cc(OC)c1O [Compound 10, (2E)-1-(3′,5′-dimethoxy,4′-hydroxy-phenyl)-3-(quinoxalin-6-yl)-2-propen-1-one] | 5 fold
